From PMC10655131 (Journal of medicinal chemistry, 2021)

What was measured:
recombinant HIV-1 RT [1] = test: colorimetric Reverse Transcriptase Assay; format: biochemical
recombinant HIV-1 RT [2] = conditions: read-out: IC50 (Anti-HIV RT enzyme inhibition activity); mean ± SD, n = 3; cited from earlier work
HIV-1HXB2 = format: cell-based; conditions: antiviral EC50 relative to best inhibitor (NBD-14189)
TZM-bl cells = conditions: read-out: CC50 (cytotoxicity), XTT, three days; cited from earlier work

For `NC[C@@H](NC(=O)c1ccc(-c2ccc(Cl)c(F)c2)[nH]1)c1ncc(CO)s1` [NBD-14075], the “increase in the IC50 value” (recombinant HIV-1 RT [1]; 075 vs. 189 and 270) was ~ 10 fold.

For `CC1(C)CC(NC(=O)C(=O)Nc2ccc(Cl)cc2)CC(C)(C)N1` [NBD-556], the IC50 (recombinant HIV-1 RT [2]) is listed as > 200 µM.

In the case of `NC[C@H](NC(=O)c1ccc(-c2ccc(C(F)(F)F)cc2)[nH]1)c1nc(CO)cs1` [NBD-14189], the “Fold-change from best inhibitor (EC50)” value (HIV-1HXB2) is reported as 1 and the “Fold-change from best inhibitor (IC50)” value (recombinant HIV-1 RT [1]; RT IC50 relative to best inhibitor (NBD-14189)) is reported as 1.

For `NC[C@@H](NC(=O)c1ccc(-c2ccc(C(F)(F)F)cn2)[nH]1)c1ncc(C(O)CO)s1` (some centres unmarked) [NBD-14306], the CC50 (TZM-bl cells) is listed as > 113 µM.
